Measurements published in US11326165B1, “Methods and compositions for modulating splicing” (SKYHAWK THERAPEUTICS, INC., priority 2017, dated 2022).

Key:
[1] = tested on: A673 cells; test: Cell viability and proliferation, A673 cells (crystal violet); type: cell-based; settings: cell proliferation IC50 in NHDF cells over A673 cells, 72 h
Procedure: Small molecule splicing modulators were tested in a dose-response assay using A673 cells and NHDF cells.
A673 cells or NHDF cells were first plated in 96-well plastic tissue culture plates (10,000 cells per well). The cells were treated with vehicle alone (DMSO), or increasing concentrations of SMSM compounds for 72 h. Following treatment, cell proliferation was determined using a crystal violet assay. The relative cell proliferation at each concentration was determined.

[2] = tested on: A673 xenografts; test: A673 xenografts in nude mice, tumor growth inhibition; type: in vivo; settings: A673 xenograft (FIGS. 16A-C), 1 mg/kg BID
Procedure: Dose range and time course studies comparing anti-neoplastic effects of SMSM−167 and SMSM−151 against vehicle were conducted.
Female NCrNu mice were used. Age range of enrolment was 7-10 weeks. A total of 75 animals were for the studies.
The A673 tumor cell line was maintained in vitro as a monolayer culture. […] The cells growing in an exponential growth phase were harvested and counted for tumor inoculation.
Each mouse were inoculated into a right flank with the single cell suspension of 95% viable tumor cells (5×10^6 cells/mouse) in serum-free RPMI 1640 Media for tumor development. Treatments were administered when mean tumor size reached approximately 75 mm^3.
Before commencement of treatment, all animals were weighed and assigned to treatment groups using a randomization procedure. Mice were randomized into groups based upon their tumor sizes to ensure that each group had approximately the same mean tumor size and range of tumor size.
After inoculation, the animals were checked daily for morbidity and mortality. At the time of routine monitoring, the animals were checked for any effects of tumor growth on normal behavior such as mobility, food and water consumption, body weight gain/loss, eye/hair matting and any other abnormal effects. Deaths and observed clinical signs were recorded.
Body weight were measured prior to tumor inoculation and prior to the treatment administration and then daily. Tumor size were measured 2-3 times per week in two dimensions using a caliper, and the volume were expressed in mm^3 using the formula: V=0.5×a×b^2 where a and b are the long and short diameters of the tumor, respectively.
(§1) Studies were terminated when the tumor size in the vehicle treated group reached 2,000 mm^3. Each mouse was bled at 2 hrs after the last dose and at least 50 μl of plasma were collected from each mouse. All of the collected plasma samples and retainer dosing solutions for each dose level were used for bioanalytical measurements. All tumors were also collected and weighed. One necrosis-free tumor fragment of approximately 50 mg was taken from each tumor and flash-frozen for RNA isolation. The remaining tumor was flash frozen for PK analysis.
(§2) Studies were performed to assess the effects of in vivo SMSM treatment on glioblastoma, breast, pancreatic, prostate, melanoma, lymphoma and Ewing sarcoma tumors. Studies were also performed to assess the effects of in vivo SMSM treatment on mRNA levels. Immunocompromised nude mice with pre-existing glioblastoma, breast, pancreatic, prostate, melanoma, lymphoma and Ewing sarcoma xenografts were treated with vehicle or SMSMs. Tumor tissues from subcutaneous xenografts were broken into a powder using a BioPulverizer (Biospec Products, Inc.). After SMSM treatment, mRNA was isolated from the xenografts and was analyzed by qRT-PCR.
as §1, with “Tumor size was measured 2 times per week in two dimensions using a caliper. Studies” for “Studies”, “plasma was” for “plasma were”
The effects of in vivo SMSM treatments on pre-existing subcutaneous glioblastoma, breast, pancreatic, prostate, melanoma, lymphoma and Ewing sarcoma xenografts were assessed. For these in vivo experiments, 1×10^6Raji, A375, A673, MDA-MB-231, BxPC-3, PC-3 or U87 (cells re-suspended in 100 μl PBS were subcutaneously injected into the flanks of nude mice. When the tumor reached approximately 100 mm^3 (volume=(¾)(π)(length/2)(width/2)^2), the treatments indicated in the tables below were initiated. […]

[3] = tested on: A375 xenografts; test: A375 xenografts in nude mice, tumor growth inhibition; type: in vivo
Procedure: as §2
as §1, with “Tumor size was measured 2 times per week in two dimensions using a caliper. Studies” for “Studies”, “plasma was” for “plasma were”
The effects of in vivo SMSM treatments on pre-existing subcutaneous glioblastoma, breast, pancreatic, prostate, melanoma, lymphoma and Ewing sarcoma xenografts were assessed. For these in vivo experiments, 1×10^6Raji, A375, A673, MDA-MB-231, BxPC-3, PC-3 or U87 (cells re-suspended in 100 μl PBS were subcutaneously injected into the flanks of nude mice. When the tumor reached approximately 100 mm^3 (volume=(¾)(π)(length/2)(width/2)^2), the treatments indicated in the tables below were initiated.

Cc1[nH]c2ccccc2c1CCNCc1ccc(/C=C/C(=O)NO)cc1 [Panobinostat]
Ratio NHDF/A673 IC50 [1]: ≤10

CN(c1ccc(-c2ccc(-c3cn[nH]c3)cc2O)nn1)[C@@H]1C[C@H]2CCC[C@@H](C1)N2 [compound 160, 2-(6-(((1R,3s,5S)-9-azabicyclo[3.3.1]nonan-3-yl)(methyl)amino)pyridazin-3-yl)-5-(1H-pyrazol-4-yl)phenol]
Ratio NHDF/A673 IC50 [1]: >225 | Tumor Growth Inhibition (TGI) (%) ([2]; Day 3): −0.94% | Tumor Growth Inhibition (TGI) (%) ([2]; Day 6): 25.67% | Tumor Growth Inhibition (TGI) (%) ([2]; Day 10): 25.67% | Tumor Growth Inhibition (TGI) (%) ([2]; Day 13): 42.90% | Tumor Growth Inhibition (TGI) (%) ([3]; A375 xenograft (FIGS. 17A-B), 3 mg/kg ip. BID, D4): 33.09% | Tumor Growth Inhibition (TGI) (%) ([3]; A375 xenograft (FIGS. 17A-B), 3 mg/kg ip. BID, D6): 92.99% | Tumor Growth Inhibition (TGI) (%) ([3]; A375 xenograft (FIGS. 17A-B), 3 mg/kg ip. BID, D10): 109.59% | Tumor Growth Inhibition (TGI) (%) ([3]; A375 xenograft (FIGS. 17A-B), 3 mg/kg ip. BID, D13): 105.98% | Tumor Growth Inhibition (TGI) (%) ([3]; A375 xenograft (FIGS. 17A-B), 3 mg/kg ip. BID, D17): 99.59% | Tumor Growth Inhibition (TGI) (%) ([3]; A375 xenograft (FIGS. 17A-B), 3 mg/kg ip. BID, D21): 94.68% | Tumor Growth Inhibition (TGI) (%) ([3]; A375 xenograft (FIGS. 17A-B), 3 mg/kg ip. QD, D4): 3.40% | Tumor Growth Inhibition (TGI) (%) ([3]; A375 xenograft (FIGS. 17A-B), 3 mg/kg ip. QD, D6): 47.56% | Tumor Growth Inhibition (TGI) (%) ([3]; A375 xenograft (FIGS. 17A-B), 3 mg/kg ip. QD, D10): 44.13% | Tumor Growth Inhibition (TGI) (%) ([3]; A375 xenograft (FIGS. 17A-B), 3 mg/kg ip. QD, D13): 40.08% | Tumor Growth Inhibition (TGI) (%) ([3]; A375 xenograft (FIGS. 17A-B), 3 mg/kg ip. QD, D17): 45.12% | Tumor Growth Inhibition (TGI) (%) ([3]; A375 xenograft (FIGS. 17A-B), 3 mg/kg ip. QD, D21): 53.98% | Tumor Growth Inhibition (TGI) (%) ([3]; A375 xenograft (FIGS. 17A-B), 10 mg/kg ip. QD*5day, D4): 72.84% | Tumor Growth Inhibition (TGI) (%) ([3]; A375 xenograft (FIGS. 17A-B), 10 mg/kg ip. QD*5day, D6): 118.42% | Tumor Growth Inhibition (TGI) (%) ([3]; A375 xenograft (FIGS. 17A-B), 10 mg/kg ip. QD*5day, D10): 112.78% | Tumor Growth Inhibition (TGI) (%) ([3]; A375 xenograft (FIGS. 17A-B), 10 mg/kg ip. QD*5day, D13): 103.12% | Tumor Growth Inhibition (TGI) (%) ([3]; A375 xenograft (FIGS. 17A-B), 10 mg/kg ip. QD*5day, D17): 97.84% | Tumor Growth Inhibition (TGI) (%) ([3]; A375 xenograft (FIGS. 17A-B), 10 mg/kg ip. QD*5day, D21): 95.59% | Tumor Growth Inhibition (TGI) (%) ([3]; A-375 xenograft (FIGS. 21A-B), 1.5 mg/kg i.p. BID *21 days, D4): 3.60% | Tumor Growth Inhibition (TGI) (%) ([3]; A-375 xenograft (FIGS. 21A-B), 1.5 mg/kg i.p. BID *21 days, D7): 18.11% | Tumor Growth Inhibition (TGI) (%) ([3]; A-375 xenograft (FIGS. 21A-B), 1.5 mg/kg i.p. BID *21 days, D11): 30.05% | Tumor Growth Inhibition (TGI) (%) ([3]; A-375 xenograft (FIGS. 21A-B), 1.5 mg/kg i.p. BID *21 days, D14): 30.28% | Tumor Growth Inhibition (TGI) (%) ([3]; A-375 xenograft (FIGS. 21A-B), 1.5 mg/kg i.p. BID *21 days, D18): 42.80% | Tumor Growth Inhibition (TGI) (%) ([3]; A-375 xenograft (FIGS. 21A-B), 1.5 mg/kg i.p. BID *21 days, D21): 37.88% | Tumor Growth Inhibition (TGI) (%) ([3]; A-375 xenograft (FIGS. 21A-B), 3 mg/kg i.p. BID *21 days, D4): 38.68% | Tumor Growth Inhibition (TGI) (%) ([3]; A-375 xenograft (FIGS. 21A-B), 3 mg/kg i.p. BID *21 days, D7): 46.64% | Tumor Growth Inhibition (TGI) (%) ([3]; A-375 xenograft (FIGS. 21A-B), 3 mg/kg i.p. BID *21 days, D11): 94.46% | Tumor Growth Inhibition (TGI) (%) ([3]; A-375 xenograft (FIGS. 21A-B), 3 mg/kg i.p. BID *21 days, D14): 89.78% | Tumor Growth Inhibition (TGI) (%) ([3]; A-375 xenograft (FIGS. 21A-B), 3 mg/kg i.p. BID *21 days, D18): 81.80% | Tumor Growth Inhibition (TGI) (%) ([3]; A-375 xenograft (FIGS. 21A-B), 3 mg/kg i.p. BID *21 days, D21): 71.33%

Nc1ccccc1NC(=O)c1ccc(CNc2nccc(-c3cccnc3)n2)cc1 [Mocetinostat]
Ratio NHDF/A673 IC50 [1]: ≤10

O=C(/C=C/c1cccc(S(=O)(=O)Nc2ccccc2)c1)NO [Belinostat]
Ratio NHDF/A673 IC50 [1]: ≤10

CC(/C=C/C(=O)NO)=C\[C@@H](C)C(=O)c1ccc(N(C)C)cc1 [Trichostatin A]
Ratio NHDF/A673 IC50 [1]: ≤10

CCCS(=O)(=O)Nc1ccc(F)c(C(=O)c2c[nH]c3ncc(-c4ccc(Cl)cc4)cc23)c1F [Vemurafenib, vemurafenib, reference compound]
Tumor Growth Inhibition (TGI) (%) ([3]; A375 xenograft (FIGS. 17A-B), 50 mg/kg p.o. BID, D4): 9.47% | Tumor Growth Inhibition (TGI) (%) ([3]; A375 xenograft (FIGS. 17A-B), 50 mg/kg p.o. BID, D6): 9.98% | Tumor Growth Inhibition (TGI) (%) ([3]; A375 xenograft (FIGS. 17A-B), 50 mg/kg p.o. BID, D10): 24.32% | Tumor Growth Inhibition (TGI) (%) ([3]; A375 xenograft (FIGS. 17A-B), 50 mg/kg p.o. BID, D13): 50.53% | Tumor Growth Inhibition (TGI) (%) ([3]; A375 xenograft (FIGS. 17A-B), 50 mg/kg p.o. BID, D17): 69.66% | Tumor Growth Inhibition (TGI) (%) ([3]; A375 xenograft (FIGS. 17A-B), 50 mg/kg p.o. BID, D21): 82.03% | Tumor Growth Inhibition (TGI) (%) ([3]; A-375 xenograft (FIGS. 21A-B), 50 mg/kg p.o. BID *21 days, D4): 111.22% | Tumor Growth Inhibition (TGI) (%) ([3]; A-375 xenograft (FIGS. 21A-B), 50 mg/kg p.o. BID *21 days, D7): 112.77% | Tumor Growth Inhibition (TGI) (%) ([3]; A-375 xenograft (FIGS. 21A-B), 50 mg/kg p.o. BID *21 days, D11): 114.44% | Tumor Growth Inhibition (TGI) (%) ([3]; A-375 xenograft (FIGS. 21A-B), 50 mg/kg p.o. BID *21 days, D14): 109.55% | Tumor Growth Inhibition (TGI) (%) ([3]; A-375 xenograft (FIGS. 21A-B), 50 mg/kg p.o. BID *21 days, D18): 107.72% | Tumor Growth Inhibition (TGI) (%) ([3]; A-375 xenograft (FIGS. 21A-B), 50 mg/kg p.o. BID *21 days, D21): 106.56%

CN(c1ccc(-c2ccc(-c3ccn(C)c(=O)c3)cc2O)nn1)[C@H]1C[C@]2(C)CC[C@](C)(C1)N2 [compound 168, 4-(4-(6-(((1R,3s,5S)-1,5-dimethyl-8-azabicyclo[3.2.1]octan-3-yl)(methyl)amino)pyridazin-3-yl)-3-hydroxyphenyl)-1-methylpyridin-2(1H)-one]
Ratio NHDF/A673 IC50 [1]: >500
